From patent US9636324B2, “Use of 15-benzylidence-14-deoxy-11, 12 -dehyroandrographolide derivative in manufacture of medicaments for protecting liver and anti-hepatitis C virus” (Zhengzhou University, priority 2012, dated 2017)

What was measured:
[1] = system: mice with carbon tetrachloride induced liver damage; assay: Carbon tetrachloride induced chemical liver damage model in mice; type: in vivo, Kunming mice; conditions: for protective effect against liver damage induced by carbon tetrachloride (summary): mice, intragastric, 3 days; for ALT activity in serum vs model group / AST activity in serum vs model group: dosage groups not distinguished (0.66 and 0.88 mmol/kg); for ALT activity in serum vs model group / AST activity in serum vs model group / MDA level in liver homogenate vs model group / PGE2 level in liver homogenate vs model group: P<0.01; for MDA level in liver homogenate vs model group / PGE2 level in liver homogenate vs model group: dosage groups not distinguished; for magnitude of decrease in ALT activity compared to AD group / magnitude of decrease in AST activity compared to AD group / PGE2 content compared to AD group / ability to reduce lipid peroxide level in liver homogenate compared to AD group: P<0.05
Description: Kunming mice of clean grade (male, weight 20±2 g), after adaptively fed for 3 days, are randomly divided into normal group, model group, bifendate positive control group (200 mg/kg), AD group (0.88 mmol/kg), low dosage group (0.66 mmol/kg) and high dosage group (0.88 mmol/kg) of compound A, B, C and D, with 8 mice in each group. Positive group and each test group are intragastrically given with respective suspension prepared with 0.5% CMC-Na, and normal group and model group are given with 0.5% CMC-Na. The drugs are given for 3 days, and 1 h after the last administration, all mice except those in the normal group are intraperitoneally injected with a single dose of 0.3% carbon tetrachloride in peanut oil (0.1 mL/10 g). After 16 h, the eyeball of the mice in each group is enucleated to collect blood, which is centrifuged at 3000 rpm for 15 min to separate serum. ALT and AST activities are tested respectively (Nanjing Jiancheng Bioengineering Institute). The left lobe of liver is taken to prepare 10% homogenate using physiological saline, MDA (Nanjing Jiancheng Bioengineering Institute) and PGE2 contents are determined. Experimental data are expressed as average±standard deviation (X±s), analyzed with SPSS 11.5 statistic software, with P<0.05 meaning there is a significant difference. Other agents, drugs and experimental methods are the same as in EXAMPLE 1. In experimental investigation of both models, the following grouping method is used: Kunming mice of clean grade (male, weight 20±2 g) are randomly divided into normal group, model group, bifendate group (200 mg/kg), AD group (0.88 mmol/kg), low dosage group (0.66 mmol/kg) and high dosage group (0.88 mmol/kg) of compound E, with 8 mice in each group. Other agents, drugs and experimental methods are the same as in EXAMPLE 1 and in EXAMPLE 4, respectively.

[2] = system: mice with ConA induced liver damage; assay: ConA induced immunological liver damage model in mice; type: in vivo, Kunming mice; conditions: for protective effect against liver damage induced by ConA (summary): mice, intragastric, 3 days; for enzyme (ALT, AST) lowering effect compared to AD group: high dosage 0.88 mmol/kg vs AD 0.88 mmol/kg; for ability against liver lipid peroxidation compared with AD group: P<0.01 (B, C), P<0.05 (D)
Description: Kunming mice of clean grade (male, weight 20±2 g, supplied by the Laboratory Animal Center, Henan Province) are randomly divided into groups with 6 mice in each group. Bifendate (Xinchang Pharmaceutical Factory of Zhejiang Pharmaceutical Co., Ltd, 200 mg/kg) is used as positive control, andrographolide (AD) is provided by Furen Pharmaceutical Group Co., Ltd, and the test compounds are synthesized by the inventors with purities higher than 99.0%. Normal control group and model group are intragastrically given 0.5% sodium carboxymethylcellulose (CMC-Na), and test groups are given 0.5% CMC-Na suspensions with AD (0.88 mmol/kg), and low dosage (0.66 mmol/kg) and high dosage (0.88 mmol/kg) of compound A, B and C, respectively. The drugs are given for 3 days. One hour after the last administration, all mice except those in the normal control group are injected with a single dose of ConA (20 mg/kg) through the caudal vein. After 8 h, the eyeball is enucleated to collect blood, which is centrifuged at 3000 rpm for 15 min to separate serum. ALT and AST are tested according to the kit specification, respectively (Nanjing Jiancheng Bioengineering Institute). The left lobe of liver is taken to prepare 10% homogenate using physiological saline, MDA is determined according to the kit specification (Nanjing Jiancheng Bioengineering Institute). To 50 μL liver homogenate is added 2 mL of 0.5 mol/L KOH-methanol solution and kept at 50° C. water bath to isomerize for 20 minutes, then absorbance (A value) is measured at 278 nm, using the A value per mL of homogenate to represent the PGE2 content. Experimental data are expressed as average±standard deviation (X±s), analyzed with SPSS 11.5 statistic software, with P<0.05 meaning significant difference.
Kunming mice of clean grade (male, weight 20±2 g) are randomly divided into normal group, model group, bifendate (Zhejiang Wanbang Pharmaceutical Co., Ltd) positive control group (200 mg/kg), AD group (0.88 mmol/kg), low dosage group (0.66 mmol/kg) and high dosage (0.88 mmol/kg) group of compound D. ALT, AST, and MDA assay kits are purchased from Nanjing Jiancheng Bioengineering Institute. Other agents, drugs and experimental methods are the same as in EXAMPLE 1.
In experimental investigation of both models, the following grouping method is used: Kunming mice of clean grade (male, weight 20±2 g) are randomly divided into normal group, model group, bifendate group (200 mg/kg), AD group (0.88 mmol/kg), low dosage group (0.66 mmol/kg) and high dosage group (0.88 mmol/kg) of compound E, with 8 mice in each group. Other agents, drugs and experimental methods are the same as in EXAMPLE 1 and in EXAMPLE 4, respectively.

[3] = system: bovine viral diarrhea virus (BVDV-AV69); assay: CPE observation of effects on cytopathy caused by BVDV in MDBK cells; conditions: MDBK cells, BVDV-AV69; TC50 from MTT, IC50 from CPE
Description: Pharmaceutical effects of drugs of the invention against cytopathy caused by inoculation of BVDV virus are investigated using MDBK (NBL-1) cells (purchased from Chinese Academy of Science's Shanghai Center for Type Culture Collection) and bovine viral diarrhea virus (BVDV-AV69) (purchased from China Institute of Veterinary Drugs Control). Ribavirin (R; Henan RunHong Pharmaceutical Co., Ltd; batch number: E0909604) is used as positive drug control. MDBK cells are prepared as a suspension (1×10^5/mL) in RPMI1640 culture medium which contains 10% in volume fetal bovine serum (Zhejiang Tianhang Biotechnology Co., Ltd; batch number: 100524), 100 μg/mL streptomycin (Shenzheng Huayao Nanfang Pharmaceutical Co., Ltd; batch number: N09081), 100 U/mL penicillin (North China Pharmaceutical Co., Ltd; batch number: E0909604), and are seeded in 96 well plates (Costar, US) at 200 μL/well, placed in an incubator (Binder, Germany) at 37° C. with 5% CO2 to culture the cell. In 24 h when cells grow into a single layer, virus solution of 100 TCID50 (TCID50=10^−2.5) is added and incubated for 1.5 h. Maintenance medium with the drug is added at 200 μL/well after 3×PBS washes.
After digestion of MDBK cells with trypsin, cells with a concentration of 1×10^5/mL are seeded into 96 well plates at 200 μL/well, placed in an incubator at 37° C. with 5% CO2 for 24 h. After growing into a single layer, cells are attacked using 100 TCID50 (TCID50=10^−2.5) virus and incubated for 1.5 h. The virus-containing maintenance medium is discarded, and cells are washed with PBS, followed by addition of drug-containing maintenance medium with different concentrations, and incubation in 5% CO2 at 37° C. Normal cell control, virus control, drug treatment and ribavirin treatment groups are set. The cytopathy developing status is recorded everyday by observing under an inverted microscope.

[4] = system: mice with ethanol induced liver damage; assay: Ethanol induced liver damage model in mice; type: in vivo, Kunming mice
Description: Kunming mice of clean grade (male, weight 20±2 g), after adaptively fed for 3 days, are randomly divided into normal group, model group, bifendate positive control group (200 mg/kg), AD group (0.88 mmol/kg), low (0.44 mmol/kg), median (0.66 mmol/kg) and high (0.88 mmol/kg) dosage groups of compound A, and median (0.66 mmol/kg) and high (0.88 mmol/kg) dosage groups of compound B, with 8 mice in each group. Positive group and each test group are intragastrically given with respective suspension prepared with 0.5% CMC-Na, and normal group and model group are given with 0.5% CMC-Na. The drugs are given for 3 days, and 1 h after the last administration, all mice except those in the normal group are intragastrically administrated with a single dose of 50% EtOH ([…]). After 16 h, the eyeball of the mice in each group is enucleated to collect blood, which is centrifuged at 3000 rpm for 15 min to separate serum. ALT and AST activities are tested respectively (Nanjing Jiancheng Bioengineering Institute). The left lobe of liver is taken to prepare 10% homogenate using physiological saline, MDA (Nanjing Jiancheng Bioengineering Institute) content is determined. Experimental data are expressed as average±standard deviation (X±s), analyzed with SPSS 11.5 statistic software, with P<0.05 meaning there is a significant difference. Other agents, drugs and experimental methods are the same as in EXAMPLE 1.

[5] = high dosage 0.88 mmol/kg vs AD 0.88 mmol/kg
[6] = low dosage 0.66 mmol/kg vs AD 0.88 mmol/kg
[7] = high dosage 0.88 mmol/kg, P<0.01
[8] = dosage groups not distinguished, P<0.01

Row | Compound | protective effect against liver damage induced by carbon tetrachloride (summary) [1] | protective effect against liver damage induced by ConA (summary) [2] | TI value (therapy index, TC50/IC50) [3] | ALT activity in serum vs model group [1] | AST activity in serum vs model group [1] | MDA level in liver homogenate vs model group [1] | PGE2 level in liver homogenate vs model group [1] | magnitude of decrease in ALT activity compared to AD group [1, 5] | magnitude of decrease in AST activity compared to AD group [1, 5] | magnitude of decrease in ALT activity compared to AD group [1, 6] | magnitude of decrease in AST activity compared to AD group [1, 6] | enzyme (ALT, AST) lowering effect compared to AD group ([2]; P<0.05) | MDA content in liver homogenate vs model group [2, 7] | PGE2 content in liver homogenate vs model group [2, 7] | ability against liver lipid peroxidation compared with AD group ([2]; high dosage 0.88 mmol/kg) | also measured
1 | C=C1CC[C@@H]2[C@](C)(CO)[C@H](O)CC[C@@]2(C)[C@@H]1C/C=C1/C(=O)OC[C@H]1O [AD, andrographolide] | Obvious Protective Effect | Obvious Protective Effect | 14.4 | – | – | – | – | – | – | – | – | – | – | – | – | MDA content in liver homogenate vs model group ([2]; AD 0.88 mmol/kg, compounds at different dosages, P<0.05): can reduce the MDA content; liver histopathologic section (HE staining) ([2]; HE stain, 200x, FIG. 5): liver cells are slightly swelled and loosed, a portion of liver cells show spotted necrosis and degeneration, no focal necrosis involving massive liver cells is observed
2 | NC(=O)c1ncn([C@@H]2O[C@H](CO)[C@@H](O)[C@H]2O)n1 [Ribavirin(R), Ribavirin, reference compound] | – | – | 4 | – | – | – | – | – | – | – | – | – | – | – | – | –
3 | C=C1CCC2C(C)(CO)C(O)CCC2(C)C1C=CC1=CC(=Cc2cccc(Br)c2)OC1=O (stereo not shown) [C] | protective effect | notably protective effect | – | notably suppress the increase | notably suppress the increase | effectively reduce | effectively reduce | significantly better | significantly better | significantly better | significantly better | better enzyme lowering effect | more obvious effect | notably reduce PGE2 content | stronger resistant ability against liver lipid peroxidation | PGE2 content compared to AD group ([1]; high dosage 0.88 mmol/kg): notably lower; ability to reduce lipid peroxide level in liver homogenate compared to AD group ([1]; high dosage 0.88 mmol/kg): stronger ability to reduce the lipid peroxide level
4 | C=C1CCC2C(C)(CO)C(O)CCC2(C)C1C=CC1=CC(=Cc2ccccc2)OC1=O (stereo not shown) [B] | protective effect | notably protective effect | – | notably suppress the increase | notably suppress the increase | effectively reduce | effectively reduce | significantly better | significantly better | significantly better | significantly better | better enzyme lowering effect | more obvious effect | notably reduce PGE2 content | stronger resistant ability against liver lipid peroxidation | PGE2 content compared to AD group ([1]; low dosage 0.66 mmol/kg): notably lower; ability to reduce lipid peroxide level in liver homogenate compared to AD group ([1]; low dosage 0.66 mmol/kg): stronger ability to reduce the lipid peroxide level; ALT activity in serum vs model group [4, 8]: effectively suppress; AST activity in serum vs model group [4, 8]: effectively suppress; MDA content in liver homogenate vs model group [4, 8]: effectively reduce the MDA content; ALT activity decreasing magnitude compared with AD group ([4]; high dosage 0.88 mmol/kg, P<0.01 (A), P<0.05 (B)): notably larger; protective effect against liver damage induced by ethanol (summary) ([4]; mice, intragastric, 3 days): protective effect
